# Experimental data taken from patent publication US8232314B2, “Compounds that protect against sensory hair cell death” (University of Washington, priority 2005, dated 2012).
# “Also recorded” adds a separate entry of the source.
# How the values were obtained:
# hair cells = assay: High-throughput screen of FDA approved compound library for protection against aminoglycoside-induced hair cell death; format: in vivo, zebrafish; settings: library of 1040 FDA approved compounds, high-throughput assay
# Description: (§1) Zebrafish eggs of the AB/Wik wild-type strain were generated and maintained until 5 days post-fertilization temporally corresponding to the developmental maturation of the lateral line hair cells. 5 day postfertilization larvae were prelabeled with the fluorescent dyes FM 1-43, 3 μM (30 sec), and Yo-Pro-1, 2 μM (30 min) to identify the hair cells. Larvae were arrayed into 96 well plates containing embryo media. Synthetic small molecules from the Chembridge Corporation, San Diego, were transferred into the wells for a final concentration of 10 μM (0.05% DMSO). Following a one hour exposure to the compounds fish were treated with neomycin for an additional hour. Larvae were then analyzed in vivo with an epifluorescent Zeiss Axiovert 200M microscope with automated stage and a 40× objective to determine hair cell viability following neomycin exposure.
# A library of 1040 FDA approved compounds (NINDS Custom Collection II, Microsource, Inc.) were screened using a high-throughput assay.
# [1] = system: lateral line hair cells of zebrafish; assay: Protection of zebrafish lateral line hair cells against neomycin-induced hair cell death; format: in vivo, zebrafish (Danio rerio); parameters: protection of hair cells from neomycin induced hair cell death in the small molecule screen: dose or concentration left out as unconfirmed; settings: for protective against toxic effects of neomycin on hair cells (identified by screening): exemplified aminoglycoside (neomycin); for protection of hair cells from neomycin induced hair cell death in the small molecule screen: 5 dpf larvae, pretreated with compound at 10 μm, exposed to neomycin, hair cells evaluated after 1 hour; for long lasting protection, hair cell counts (FM 1-43) after neomycin: 200 μm neomycin, 24 hours post treatment; for protective effect against neomycin (dose finding): pretreated at 0-200 μM compound, neomycin 200 μM, compared to controls
# Description: Zebrafish embryos were produced by paired matings of adult fish maintained at 28.5° C. in the University of Washington zebrafish facility. Beginning at 4 days post fertilization (dpf), larvae were fed live paramecia. Larvae were maintained at a density of 50 per 100 mm^2 petri dish in embryo medium (1 mM MgSO4, 120 μM KH2PO4, 74 μM Na2HPO4, 1 mM CaCl2, 500 μM KCl, […], and 500 μM NaHCO3 in dH2O) in a tissue incubator at 28.5° C. All animal procedures were approved by the University of Washington institutional Animal Care and Use Committee,
# (§2) Larvae were placed in a transfer device fashioned from a 50 ml conical tube with one end cut off and a mesh cover at the bottom. FM 1-43 (n-(3-triethylammoniumpropyl)-4-(4-dibutylamino]-styryl)pyridinium dibromide; Molecular Probes, Eugene, Oreg.) labeling of lateral line neuromasts was achieved by immersing free swimming larvae in 3 μM FM 1-43 in embryo medium for 30 seconds followed by 3 rinses in embryo medium. Using this procedure FM 1-43 is restricted to hair cells in neuromasts (Seiler and Nicolson, J Neurobiol (1999) 41:424-34). Yo-Pro-1 (Molecular Probes, Eugene, Oreg.) labeling of hair cell nuclei in lateral line neuromasts was achieved using a similar technique, incubating larvae in 2 μM Yo-Pro-1 in embryo medium for 30 minutes followed by 3 rinses. Using this procedure only the nuclei of hair cells are labeled.
# as §1
# Neomycin sulfate from a 50 mM stock solution in dH2O (Sigma) was diluted in embryo medium to final concentrations of 25 μM, 50 μM, 100 μM, 200 μM and 400 μM in each well of a six-well culture plate. Following vital dye staining live free-swimming five dpf larvae were transferred from control (neomycin-free) embryo medium to neomycin-containing medium and incubated for 1 h. For time-lapse imaging, neomycin-containing medium was added directly to the imaging chamber.
# In order to identify compounds that protect hair cells of the lateral line from the toxic effects of the aminoglycoside neomycin, 10,960 small molecules were screened. 5 dpf larvae were double labeled with the fluorescent dyes FM 1-43 and Yo-Pro-1, pretreated with the compounds at a dose of 10 μm, exposed to […], and their hair cells evaluated after 1 hour, FIG. 1.
# To identify the optimal dose for evaluating the compounds' protective effects, larvae were pretreated with both compounds at 0, 1, 10, 50, 100 and 200 μM, and exposed to neomycin at 200 μM and compared to controls.
# The neomycin susceptibility of larvae pretreated with 10 μM of compound F5 and controls at 0, 25, 100, 200 and 400 μm neomycin were compared.
# To evaluate the protection conferred by compounds F5 and H10, hair cell counts were compared using the fluorescent dye FM 1-43 to identify hair cells in larvae pretreated with compound and controls, exposed to 200 μm neomycin after 24 hours, 48 hours and 72 hours. […] At 48 hours and beyond the protective effects of compound F5 and H10 cannot be determined as the larvae have repopulated the neuromasts with regenerated hair cells, FIG. 5.
# [2] = system: lateral line hair cells of zebrafish; assay: Protection against cisplatin-induced lateral line hair cell death; format: in vivo, zebrafish (Danio rerio); settings: for protective against toxic effects of cisplatin on hair cells (identified by screening): exemplified platinum coordination complex (cisplatin)
# Description: as §2
# Cisplatin from a 200 mM stock solution in DMSO (Sigma) was diluted in embryo medium to final concentrations of 300 μM, 500 μM, and 1 mM (0.05% DMSO) in each well of a six-well culture plate. Following vital dye staining live free-swimming five dpf larvae were transferred from control (neomycin-free) embryo medium to cisplatin-containing medium and incubated for 3 h.
# To determine if compound F5 is protective against the otoxic effects of cisplatin, larvae were pretreated with compound F5 10 μm for 1 hour, exposed the larvae to 0, 300 μM, 500 μM and 1 mM of cisplatin for 3 hours, counted hair cells and compared to untreated controls.
# lateral line hair cells = assay: Mechanotransduction-dependent activity of lateral line hair cells measured by FM 1-43 uptake; format: in vivo, zebrafish; settings: pretreated 1 hour at 10 μm, FM 1-43 3 μM for 30 seconds
# Description: To test whether compounds F5 and H10 inhibit mechanotransduction-dependent activity of lateral line hair cells, larvae were incubated in the dye FM1-43. Larvae were pretreated with each compound for 1 hour at 10 μm and exposed to FM 1-43, 3 μM, for 30 seconds. […] Neither compound F5 nor compound H10 inhibited the uptake of FM1-43, FIG. 7.
# [3] = system: zebrafish lateral line hair cells; assay: Neomycin-induced hair cell death of zebrafish lateral line hair cells; format: in vivo; settings: 5 dpf larvae, 1 hour exposure to 200 μM, FM 1-43 and Yo-Pro-1 labeling
# Description: FIGS. 1A and 1B illustrate labeling and neomycin-induced hair cell death of zebrafish lateral line hair cells. FIG. 1A depicts 5 days post fertilization (dpf) larvae hair cells labeled with FM 1-43 (red) to identify the cytoplasm of hair cells and Yo-Pro-1 (green) labeling the nucleus. […] Cytoplasmic (red) and nuclear fragments (green) are visible in FIG. 1B.
# as §2
# Neomycin sulfate from a 50 mM stock solution in dH2O (Sigma) was diluted in embryo medium to final concentrations of 25 μM, 50 μM, 100 μM, 200 μM and 400 μM in each well of a six-well culture plate. […]
Molecule,protection against aminoglycoside-induced hair cell death (screen hit) (hair cells),protective against toxic effects of neomycin on hair cells (identified by screening) [1],protective against toxic effects of cisplatin on hair cells (identified by screening) [2],further results
"Nc1c2c(nc3ccccc13)CCCC2 [9-amino-1,2,3,4-tetrahydroacridine]",protect against aminoglycoside-induced hair cell death,,,
COc1ccccc1OCCNCC(O)COc1cccc2[nH]c3ccccc3c12 (centres unmarked) [Carvedilol],protect against aminoglycoside-induced hair cell death,,,
"Cc1cccc(C(=O)NC(NC(=S)Nc2sc3c(c2C(N)=O)CCCC3)C(Cl)(Cl)Cl)c1 (centres unmarked) [Compound A, 2-{{({2,2,2-trichloro-1-[(3-methylbenzoyl)amino]ethyl}amino)carbonothioyl]amino}-4,5,6,7-tetrahydro-1-benzothiophene-3-carboxamide]",,protective,protective,
"NC(=O)c1c(NC(=O)Nc2ccc(Cl)cc2)sc2c1CCCC2 [Compound B, 2-({[(4-chlorophenyl)amino]carbonyl}amino)-4,5,6,7-tetrahydro-1-benzothiophene-3-carboxamide]",,protective,protective,
"NC(=O)c1c(NC(=O)c2ccc(Cl)c([N+](=O)[O-])c2)sc2c1CCCC2 [Compound C, 2-[(4-chloro-3-nitrobenzoyl)amino]-4,5,6,7-tetrahydro-1-benzothiophene-3-carboxamide]",,protective,protective,
"NC(=O)c1c(NC(=O)CN2CCCCC2)sc2c1CCCC2 [Compound D, 2-[(1-piperidinylacetyl)amino]-4,5,6,7-tetrahydro-1-benzothiophene-3-carboxamide]",,protective,protective,
"CCN1CCc2c(sc(NC(=O)Nc3ccc(Cl)cc3)c2C(N)=O)C1 [Compound F5, 2-({[(4-chlorophenyl)amino]carbonyl}amino)-6-ethyl-4,5,6,7-tetrahydrothieno[2,3-c]pyridine-3-carboxamide]",,protective,protective,"neomycin susceptibility of pretreated larvae versus controls ([1]; 10 μM compound pretreatment, 0, 25, 100, 200 and 400 μm neomycin): less susceptible to neomycin than controls; also recorded: protects lateral line hair cells against neomycin; protection of hair cells from neomycin induced hair cell death in the small molecule screen [1]: protect hair cells from neomycin induced hair cell death; long lasting protection, hair cell counts (FM 1-43) after neomycin [1]: Significant protection; also recorded: protective through 24 hours post neomycin treatment; protective effect against neomycin (dose finding) [1]: protective against neomycin; protection against cisplatin induced hair cell death (hair cell counts) ([2]; pretreated 10 μm for 1 hour, 0, 300 μM, 500 μM and 1 mM cisplatin for 3 hours): significant protection against cisplatin induced hair cell death; also recorded: protective against cisplatin-induced lateral Sine hair cell death; inhibition of FM 1-43 uptake (mechanotransduction-dependent activity) (lateral line hair cells): do not inhibit mechanotransduction-dependent activity; also recorded: do not prevent the rapid uptake of FM1-43"
"COc1ccc(C(=O)NC(NC(=S)Nc2sc3c(c2C(N)=O)CCCC3)C(Cl)(Cl)Cl)cc1 (centres unmarked) [Compound H10, 2-{[({2,2,2-trichloro-1-[(4-methoxybenzoyl)amino]ethyl}amino)carbonothioyl]amino}-4,5,6,7-tetrahydro-1-benzothiophene-3-carboxamide]",,protective,protective,"protection of hair cells from neomycin induced hair cell death in the small molecule screen [1]: protect hair cells from neomycin induced hair cell death; long lasting protection, hair cell counts (FM 1-43) after neomycin [1]: Significant protection; also recorded: protective through 24 hours post neomycin treatment; optimal protective dose against 200 μM neomycin ([1]; larvae pretreated at 0, 1, 10, 50, 100 and 200 μM compound, 200 μM neomycin): 1 µM; protective effect against neomycin (dose finding) [1]: protective against neomycin; inhibition of FM 1-43 uptake (mechanotransduction-dependent activity) (lateral line hair cells): do not inhibit mechanotransduction-dependent activity; also recorded: do not prevent the rapid uptake of FM1-43"
CCN(CC)CCOC(=O)C(c1ccccc1)C1CCCCC1 (centres unmarked) [Drofenine],protect against aminoglycoside-induced hair cell death,,,
"NC(N)=NC(=O)c1nc(Cl)c(N2CCCCCC2)nc1N [N,N-hexamethyleneamiloride]",protect against aminoglycoside-induced hair cell death,,,
CC(COc1ccccc1)N(CCCl)Cc1ccccc1 (centres unmarked) [Phenoxybenzamine],protect against aminoglycoside-induced hair cell death,,,
neomycin,,,,hair cell death after neomycin exposure [3]: undergo apoptotic death
